What was measured:
[1] = test system: subcutaneous β3-positive tumors (FG-β3, FG-R); assay: Subcutaneous β3-positive tumor xenografts; conditions: monotherapy; lenalidomide 25 mg/kg/day, bortezomib 0.25 mg/kg
Method: To generate subcutaneous tumors, FG-β3, FG-R (after erlotinib resistance) and HCC-827 human carcinoma cells (5×10^6 tumor cells in 200 μl of PBS) were injected subcutaneously to the left or right flank of 6-8-week-old female nude mice. Tumors were measured every 2-3 days with calipers until they were harvested at day 10, 16 or after acquired resistance.
(B) Left, mice bearing subcutaneous β3-positive tumors (FG-β3) were treated with vehicle, erlotinib (25 mg/kg/day), lenalidomide (25 mg/kg/day) or the combination of erlotinib and lenalidomide. Tumor dimensions are reported as the fold change relative to size of the same tumor on Day 1. […] Right, mice bearing subcutaneous β3-positive tumors (FG-R) after acquired resistance to erlotinib were treated with vehicle, erlotinib (25 mg/kg/day), bortezomib (0.25 mg/kg), the combination of erlotinib and bortezomib.

[2] = test system: β3-positive cells (FG-β3, MDA-MB231, FG-R); assay: Soft agar anchorage independent growth, colonies counted; format: cell-based, human; conditions: erlotinib (0.5 μM), Lenalidomide (2 μM), PS-1145 (1 μM) alone, 10 to 15 days
Excerpt: Then, the soft agar were stained with crystal violet and the colonies were counted manually.

[3] = test system: FG and PANC-1 cells expressing or lacking integrin β3; assay: Soft agar / tumorsphere 3D growth, drug dose response (Example 3); format: cell-based, human; conditions: cells growing in 3D
Method: Tumorsphere assay was performed as previously described. Soft agar formation assays were performed essentially as described previously. […] The media was replaced with fresh inhibitor 2/5 times a week. […] (a) Effect of integrin β3 expression (ectopic expression for FG and integrin β3-specific knockdown for PANC-1) cells on drug treatment response. Cells were treated with a dose response of gemcitabine, cisplatin, erlotinib, lapatinib and linsitinib. […] Tumor volumes are expressed as mean±SEM. *P<0.05. […] Results are expressed as % tumor weight compared to vehicle control. *P<0.05. […] HCC827 cells were treated with vehicle control or erlotinib (12.5 mg/kg/day) until acquired resistance. […] Data are mean±SE; **P<0.001. […] Scale bar, 50 μm. (h) Limiting dilution in vivo determining the frequency of tumor-initiating cells for HCC827 vehicle-treated (vehicle) and erlotinib-treated tumors from (erlotinib resistant non-sorted) (e). The HCC827 erlotinib-treated tumors have been digested and sorted in two groups: the integrin β3- and the integrin β3+ population.

FG and FG-β3 cells = assay: Tumor sphere formation assay of FG and FG-β3 cells; format: cell-based, human; conditions: FG-β3 versus FG
Method: Tumor spheres formation assays were performed essentially as described previously^17. Briefly, cells were seeded at 1000 to 2000 cells per well and grown for 12 days to 3 weeks. Cells were treated with vehicle (DMSO), erlotinib (10 nM to 5 μM), lapatinib (10 nM to 5 μM), gemcitabine (0.001 nM to 5 μM), OSI-906 (10 nM to 5 μM), lenalidomide (10 nM to 5 μM), or cisplatin (10 nM to 5 μM), diluted in DMSO. The media was replaced with fresh inhibitor every day for erlotinib, lapatinib, lenalidomide and 3 times a week for cisplatin and gemcitabine. Colonies were stained with crystal violet and scored with an Olympus SZH10 microscope. Survival curves were generated at least with five concentration points.

[4] = test system: β3-negative and β3-positive cells; assay: Tumorsphere assay of β3-negative and β3-positive cells (Example 2); format: cell-based, human; conditions: β3-positive versus β3-negative cells
Method: Tumorsphere assay was performed as previously described (10). Cells were treated with vehicle (DMSO), erlotinib (10 nM to 5 μM), lapatinib (10 nM to 5 μM), gemcitabine (0.001 nM to 5 μM), OSI-906 (10 nM to 5 μM), lenalidomide (1 μM), cisplatin (10 nM to 5 μM), or bortezomib (4 nM) diluted in DMSO. The media was replaced with fresh inhibitor 2/6 times a week. Survival curves were generated at least with five concentration points.
(D) Representative photographs of crystal violet-stained tumorspheres of β3-negative and β3-positive cells after erlotinib, OSI-906, gemcitabine and cisplatin treatment. (E) Effect of integrin β3 expression on lapatinib, OSI-906, cisplatin and gemcitabine n=3; mean±SEM.

H1650 cells = assay: Erlotinib response of human carcinoma cell lines in 3D culture; format: cell-based; conditions: wildtype KRAS and mutant EGFR
Method: (§1) Tumorsphere assay was performed as previously described (10).
(§2) (C) Percentage of integrin β3 positive cells in parental lines vs. after 3 or 8 weeks treatment with erlotinib. (D) Quantification of integrin β3 (ITGβ3) gene expression in human lung cancer biopsies from patients from the BATTLE Study (18) who were previously treated with an EGFR inhibitor and progressed (n=27), versus patients who were EGFR inhibitor naïve (n=39). (*P=0.04 using a Student's t test). (E) Paired human lung cancer biopsies obtained before and after erlotinib resistance were immunohistochemically stained for integrin β3. Scale bar, 50 μm. (F) Right, effect of integrin β3 knockdown on erlotinib resistance of β3-positive cells. Cells were treated with 0.5 μM of erlotinib. […] Left, effect of integrin β3 ectopic expression on erlotinib resistance in FG and H441 cells. […] (G) Right, effect of integrin β3 knockdown on erlotinib resistance in vivo, A549 shCTRL and A549 sh integrin β3 (n=8 per treatment group) were treated with erlotinib (25 mg/kg/day) or vehicle during 16 days. Results are expressed as average of tumor volume at day 16. *P<0.05. Left, orthotopic FG and FG-β3 tumors (>1000 mm^3; n=5 per treatment group) were treated for 30 days with vehicle or erlotinib. Results are expressed as % tumor weight compared to vehicle control. *P<0.05.

FG, H441, and CAPAN1 = assay: as above; format: cell-based; conditions: tumor cell lines with oncogenic KRAS
Method: as §1, §2

[5] = test system: phosphorylated TBK1 and NF-κB; assay: Immunoblot analysis of RalB effectors in cells grown in suspension; format: cell-based, human; conditions: for levels of phosphorylated TBK1 and NF-κB: erlotinib (0.5 μM)
Method: Immunoblot analysis of FG, FG-β3 and FG-β3 stably expressing non-silencing or RalB-specific ShRNA, grown in suspension and treated with erlotinib (0.5 μM). pTBK1 refers to phospho-S172 TBK1, p-p65 NF-κB refers to phospho-p65 NF-κB S276, pFAK refers to phospho-FAK Tyr 861. Data are representative of three independent experiments. (b) Tumor spheres formation assay of FG cells ectopically expressing vector control, WT NF-κB FLAG tagged or constitutively active S276D NF-κB FLAG tagged constructs treated with erlotinib (0.5 μM). Error bars represent s.d. (n=3 independent experiments). *P<0.05, **P<0.001, NS=not significant. Immunoblot analysis showing NF-κB WT and S276D NF-κB FLAG transfection efficiency. (c) Tumor spheres formation assay of FG-β3 treating with non-silencing (shCTRL) or NF-κB-specific shRNA and exposed to erlotinib (0.5 μM). Error bars represent s.d. (n=3 independent experiments). *P<0.05, NS=not significant. (d) Dose response in FG-β3 cells treated with erlotinib (10 nM to 5 μM), lenalidomide (10 nM to 5 μM) or a combination of erlotinib (10 nM to 5 μM) and lenalidomide (1 μM). Error bars represent s.d. (n=3 independent experiments). *P<0.05, NS=not significant. (e) Model depicting the integrin αvβ3-mediated EGFR TKI resistance and conquering EGFR TKI resistance pathway and its downstream RalB and NF-κB effectors.
Cells were lysed in either RIPA lysis buffer (50 mM Tris pH 7.4, 100 mM NaCL, 2 mM EDTA, […], 10% Triton, 0.1% SDS) or Triton lysis buffer (50 mM Tris pH 7.5, 150 mN NaCl, 1 mM EDTA, 5 mM MgCl2, 10% Glycerol, 1% Triton) supplemented with complete protease and phosphatase inhibitor mixtures (Roche) and centrifuged at 13,000 g for 10 min at 4° C. Protein concentration was determined by BCA assay. […]
(A) Effect of RalB knockdown on erlotinib resistance of β3-positive epithelial cancer cell lines. […] Results are expressed as % of tumor weight changes after erlotinib treatment compared to vehicle. **P<0.01. […]

[6] = test system: H441 human lung adenocarcinoma orthotopic tumors; assay: Orthotopic lung cancer xenograft model; format: in vivo, mice
Excerpt: (§3) (a) Flow cytometric quantification of cell surface markers after 3 weeks treatment with erlotinib (pancreatic and colon cancer cells) or lapatinib (breast cancer cells). (b) Flow cytometric analysis of αvβ3 expression in FG and Miapaca-2 cells following erlotinib. Error bars represent s.d. (n=3 independent experiments). (c) Top, immunofluorescence staining of integrin αvβ3 in tissue specimens obtained from orthotopic pancreatic tumors treated with vehicle (n=3) or erlotinib (n=4). Scale bar, 50 μm. Bottom, Integrin αvβ3 expression was quantified as ratio of integrin αvβ3 pixel area over nuclei pixel area using Metamorph (*P=0.049 using Mann-Whitney U test). (d) Right, intensity (scale 0 to 3) of β3 expression in mouse orthotopic lung tumors treated with vehicle (n=8) or erlotinib (n=7). Left, immunohistochemical staining of β3. Scale bar, 100 μm.

PANC-1 cells = assay: Tumor sphere formation assay, erlotinib dose-response; format: cell-based, human; conditions: knockdown of αvβ3 in PANC-1 cells
Excerpt: as §3
Tumor spheres formation assays were performed essentially as described previously^17. Briefly, cells were seeded at 1000 to 2000 cells per well and grown for 12 days to 3 weeks. […] The media was replaced with fresh inhibitor every day for erlotinib, lapatinib, lenalidomide and 3 times a week for cisplatin and gemcitabine. Colonies were stained with crystal violet and scored with an Olympus SZH10 microscope.

[7] = test system: stage IV non-small cell lung cancer; assay: Serial biopsies from NSCLC patients on erlotinib therapy; format: in vivo, human
Excerpt: Tumor biopsies from University of California, San Diego (UCSD) Medical Center stage IV non-small cell lung cancer patients were obtained before erlotinib treatment and 3 patients before and after erlotinib resistance. All biopsies are from lung or pleural effusion. […] This work was approved by the UCSD Institutional Review Board (IRB).

EGFR phosphorylation = assay: Immunoblot analysis of orthotopic FG tumor lysates; format: in vivo, mice; conditions: after 10 days of erlotinib
Method: Error bars represent s.d. […] Scale bar, 50 μm. […] Scale bar, 100 μm.
All mouse experiments were carried out in accordance with approved protocols from the UCSD animal subjects committee and with the guidelines set forth in the NIH Guide for the Care and Use of Laboratory Animals. Tumors were generated by injection of FG human pancreatic carcinoma cells (10^6 tumor cells in 30 μL of sterile PBS) into the tail of the pancreas of 6-8 week old male immune compromised nu/nu mice.

With `Nc1cccc2c1CN(C1CCC(=O)NC1=O)C2=O` (racemic) [lenalidomide, (RS)-3-(4-amino-1-oxo-3H-isoindol-2-yl)piperidine-2,6-dione] the tumor growth [1] was “failed to impact tumor growth” and the “response of β3-positive cells, tumorsphere formation in soft agar” value (“response of β3-positive cells” below) [2] was “resistant”.
With `C[C@]1(O)C[C@@H](c2nc(-c3ccc4ccc(-c5ccccc5)nc4c3)c3c(N)nccn32)C1` [OSI-906] the “effect of β3 expression on drug response” value [3] was “reduced sensitivity” and the “effect of αvβ3 expression on drug resistance” value (“effect of αvβ3 expression” for short) (FG and FG-β3 cells) was “induced resistance”.
`O=C(Nc1cc(Cl)cc2c1[nH]c1cnccc12)c1cccnc1` [PS-1145] was tested, and the “response of β3-positive cells” value [2] was “resistant”.
In the case of `CC(C)C[C@H](NC(=O)[C@H](Cc1ccccc1)NC(=O)c1cnccn1)B(O)O` [bortezomib], the tumor growth [1] is reported as “failed to impact tumor growth”.
With `N.N.[Cl][Pt][Cl]` [cisplatin] the “effect of β3 expression on drug response” value [3] was “did not impact the response”, the “effect of integrin β3 expression on resistance” value [4] was “did not impact resistance” and the “effect of αvβ3 expression” value (FG and FG-β3 cells) was “failed to protect cells”.
`C#Cc1cccc(Nc2ncnc3cc(OCCOC)c(OCCOC)cc23)c1` [erlotinib, N-(3-ethynylphenyl)-6,7-bis(2-methoxyethoxy) quinazolin-4-amine] was tested, and the erlotinib sensitivity (H1650 cells) was “resistant”, the erlotinib sensitivity (FG, H441, and CAPAN1) was “sensitive” and the “activation of TBK1 and NF-κB” value ([5]; FG and FG-β3, erlotinib (0.5 μM), Example 2) was “decreased the activation of these effectors only in the absence of integrin β3”. For the same molecule, the “levels of phosphorylated TBK1 and NF-κB” value ([5]; αvβ3 negative cells) was “reduced levels of phosphorylated TBK1 and NF-κB”, the “levels of phosphorylated TBK1 and NF-κB” value ([5]; β3-positive cells) was “remained activated” and the “time treated until moribund” value ([6]; 100 mg/kg/day by oral gavage, start 3 weeks after tumor cell injection) was about 58 days. The “tumor response to systemic erlotinib” value ([6]; systemic erlotinib treatment for 7-8 weeks) was “developed resistance”, the “increase in tumor cell sensitivity to erlotinib” value (PANC-1 cells) was 10 fold and the “effect of β3 expression on drug response” value [3] was “reduced sensitivity”. For the same molecule, the “time to disease progression” value ([7]; Patient 1) was 920 days, the “time to disease progression” value ([7]; Patient 2) was 92 days and the “time to disease progression” value ([7]; Patient 3) was 120 days. For the same molecule, the initial clinical response ([7]; all 3 patients) was “initial partial response”, the “response of β3-positive cells” value [2] was “resistant” and the “EGFR phosphorylation in tumor lysates” value (EGFR phosphorylation) was “suppressed EGFR phosphorylation”.
`Nc1ccn([C@@H]2O[C@H](CO)[C@@H](O)C2(F)F)c(=O)n1` [gemcitabine] was tested, and the “effect of β3 expression on drug response” value [3] was “did not impact the response”, the “effect of integrin β3 expression on resistance” value [4] was “did not impact resistance” and the “effect of αvβ3 expression” value (FG and FG-β3 cells) was “failed to protect cells”.
With `CS(=O)(=O)CCNCc1ccc(-c2ccc3ncnc(Nc4ccc(OCc5cccc(F)c5)c(Cl)c4)c3c2)o1` [lapatinib] the “effect of β3 expression on drug response” value [3] was “reduced sensitivity”.

From patent publication US9903855B2, “Assays for screening for or identifying an agent or molecule that can block or inhibit AVB3 integrin from forming a complex with KRAS” (THE REGENTS OF THE UNIVERSITY OF CALIFORNIA, priority 2012, dated 2018)
